Consider 13 compounds from US20100292231A1, “Indazole Compounds for Treating Inflammatory Disorders, Demyelinating Disorders and Cancers” (priority 2007, published 2010).

For orientation: inhibition means how much of the control response was suppressed. In general, EC50 refers to the concentration needed to bring the measured effect to its halfway point.

This assay deals with T1, FLT3 (Homo sapiens, UniProt P36888).
T1 construct: purchased Invitrogen (SelectScreen platform)
T1 sequence (P36888 27-993): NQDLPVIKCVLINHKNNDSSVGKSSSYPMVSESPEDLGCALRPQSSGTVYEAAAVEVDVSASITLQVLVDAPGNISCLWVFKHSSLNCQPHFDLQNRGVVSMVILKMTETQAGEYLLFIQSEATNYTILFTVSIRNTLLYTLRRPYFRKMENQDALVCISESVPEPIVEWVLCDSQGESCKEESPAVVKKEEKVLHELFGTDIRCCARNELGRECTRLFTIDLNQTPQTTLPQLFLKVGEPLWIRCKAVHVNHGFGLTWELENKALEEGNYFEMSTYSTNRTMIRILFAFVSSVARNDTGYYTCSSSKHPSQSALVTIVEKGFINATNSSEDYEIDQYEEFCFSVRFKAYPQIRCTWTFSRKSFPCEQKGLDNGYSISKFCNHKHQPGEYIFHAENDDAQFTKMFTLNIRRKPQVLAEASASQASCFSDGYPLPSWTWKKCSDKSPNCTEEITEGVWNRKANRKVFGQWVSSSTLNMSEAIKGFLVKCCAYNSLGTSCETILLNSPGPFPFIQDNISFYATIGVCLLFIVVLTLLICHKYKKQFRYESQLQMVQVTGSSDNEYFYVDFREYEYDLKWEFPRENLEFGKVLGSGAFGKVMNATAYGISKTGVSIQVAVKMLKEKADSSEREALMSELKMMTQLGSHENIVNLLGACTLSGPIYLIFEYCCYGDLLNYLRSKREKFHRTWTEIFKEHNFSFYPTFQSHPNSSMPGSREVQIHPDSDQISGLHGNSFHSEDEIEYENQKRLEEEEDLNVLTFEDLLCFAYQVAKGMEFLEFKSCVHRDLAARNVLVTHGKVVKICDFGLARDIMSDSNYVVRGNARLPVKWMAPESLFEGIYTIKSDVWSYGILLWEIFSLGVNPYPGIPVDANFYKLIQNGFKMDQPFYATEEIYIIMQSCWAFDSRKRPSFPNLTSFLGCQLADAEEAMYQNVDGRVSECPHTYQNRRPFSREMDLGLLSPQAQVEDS
As to the kind of experiment: SelectScreen FLT3 kinase dose response assay. Format: biochemical. The note with it: ATP 100 micromolar; for inhibition at 1 µM: read-out: FLT3 Inhibition E1000 (percent inhibition at 1000 nMolar); for EC50: dose response, 4 parameter Hill equation, read-out: FLT3 Inhibition EC50. The method, then:
The terms “IC50” and “EC50” are used interchangeably. As used herein, “EC50” refers to nMolar concentration at median percent inhibition determined by dose respose (DR) assay. As used herein, the term “E1000” refers to percent inhibition at 1000 nMolar determined by assay.
Testing of the compounds described in this invention was carried out using the SelectScreen™ platform from Invitrogen, Inc. (Carlsbad. Calif., USA) and the details of its performance are readily viewed via the web by linking to: http://www.invitrogen.com/downloads/SelectScrn_Brochure.pdf.
Briefly, the approach is based on treating each specific kinase with a unique substrate and optical reporter system in the presence of ATP at 100 micromolar. In controls, the substrate is phosphorylated and a baseline optimal response is recorded.
The compounds were then re-tested by adding graded amounts of putative inhibitor which were added in 5 separate increments to generate a dose response curve. The latter is obtained by fitting to a 4 parameter Hill equation, a sigmoid saturation equation.
For the compounds of this invention, the experimental conditions were as follows. The 2× FLT3/Tyr 02 peptide mixture was prepared in 50 mM HEPES pH 7.5, 0.01 BRIJ-35, 10 mM MgCl2, 1 mM EGTA. The final 10 uL kinase reaction consists of 0.6-76.0 ng FLT3 and 2 uM Tyr 02 peptide in 50 mM HEPES pH 7.5, 0.01% BRIJ-35, 10 mM MgCl2, 1 mM EGTA. After 1 hour kinase reaction incubation, 5 uL of a 1:64 dilution of development reagent A was added.

As to `CN(C)CCCCCNc1ccc2ncn3c4ccc5[nH]ncc5c4c(=O)c1c23` [(III)], the EC50 amounted to 4 nM. For the same compound, under “1000 nMolar compound”, the inhibition at 1 µM was determined as 100%.
On the same counts, the results for `CN(C)c1ccc2ncn3c4ccc5[nH]ncc5c4c(=O)c1c23` [(IX)] are 9 nM and 98%.
On the same counts, the results for `CCN(CC)c1ccc2ncn3c4ccc5[nH]ncc5c4c(=O)c1c23` [(VI)] are 5 nM and 100%.
On the same counts, the results for `CNc1ccc2ncn3c4ccc5[nH]ncc5c4c(=O)c1c23` [(VII)] are 5 nM and 99%.
As to `CCN(CC)CCNc1ccc2ncn3c4ccc5[nH]ncc5c4c(=O)c1c23` [(VIII)], the EC50 was determined as 69 nM. Further, for the setting “1000 nMolar compound”, the inhibition at 1 µM turned out to be 87%.
`O=c1c2c(NCCCN3CCOCC3)ccc3ncn(c4ccc5[nH]ncc5c14)c32` [(X)]: the EC50 was determined as 11 nM. Also, the inhibition at 1 µM (1000 nMolar compound) came out at 98%.
On the same counts, the results for `CN(C)CCNc1ccc2ncn3c4ccc5[nH]ncc5c4c(=O)c1c23` [(XII)] are 11 nM and 98%.
For the compound `CC(CCN1CCOCC1)Nc1ccc2ncn3c4ccc5[nH]ncc5c4c(=O)c1c23` (centres unmarked) [(XVI)], where the note is “1000 nMolar compound”, the “FLT3 Inhibition E1000 (percent inhibition at 1000 nMolar)” value amounted to 98% and the inhibition at 1 µM was 99%.
As to `CN1CCN(CCCNc2ccc3ncn4c5ccc6[nH]ncc6c5c(=O)c2c34)CC1` [(XVII)], the EC50 came out at 8 nM. In addition, the inhibition at 1 µM (1000 nMolar compound) came out at 99%.
As for `CN(C)CCCNc1ccc2ncn3c4ccc5[nH]ncc5c4c(=O)c1c23` [Compound (IV)], the EC50 was 14 nM. Also, the inhibition at 1 µM (1000 nMolar compound) came out at 98%.
As to `O=c1c2c(NCCN3CCOCC3)ccc3ncn(c4ccc5[nH]ncc5c14)c32` [Compound (V)], the EC50 turned out to be 30 nM. The inhibition at 1 µM (1000 nMolar compound) was determined as 95%.
Regarding `CCN(CC)CCCNc1ccc2ncn3c4ccc5[nH]ncc5c4c(=O)c1c23` [Compound (XV)], the EC50 turned out to be 11 nM. Further, the inhibition at 1 µM (1000 nMolar compound) turned out to be 99%.
On the same counts, the results for `CCN(CC)CCNc1ccc2ncn3c4ccc(O)cc4c(=O)c1c23` [Symadex, 5-(2-(diethylamino)ethylamino)-8-hydroxy-6H-imidazo[4,5,1-de]acridin-6-one, reference compound] are 24 nM and 96%.
